The subject of one series is cytomegalovirus (CMV). The following applies: cited from earlier work.
Series [1] deals with retinal neovascularization. The experiment in a line: intravitreal IGF-1 rabbit model of retinal angiogenesis. It is filed as in vivo, pigmented rabbits. Particulars: for ophthalmoscopy findings: all rabbits. On the procedure: Pigmented rabbits were selected for study after considering the ocular anatomy, animal supply and established use of the species in ophthalmology. Growth factor was injected into the vitreous of pigmented rabbits (n=30) as previously described. Briefly, rabbits were anesthetized with ketamine and xylazine and a 30 g needle was used to withdraw 80 μl of fluid from the anterior eye chamber under an operating microscope. Then a 30 g needle was used to administer 0.1 ml of balanced salt solution containing 600 μg of IGF-1 adjacent to the surface of the retina near the optic nerve head. The rabbits were placed in a supine position for 30–60 minutes to facilitate solution dispersal onto the vascularized medullary ray and disc. Control animals (n=10) received the same dose of heat-inactivated protein (IGF-I held at 100° C. for 30 min). Animals were periodically examined using indirect ophthalmoscopy, fundus photography, and fluorescein angiography from days 2 through 21.
The temporal sequence of the anatomical changes seen in the IGF 1-injected eyes is as follows. […] The fundus of control eyes remained normal in appearance. […] Numerous distended vessels with edematous endothelial cells were found on the surface of the retina along with extensive proliferation of their extracellular matrix. […] Reduplication of the basement membrane, a strong indicator of endothelial cell hyperreactivity, was a consistent finding in all IGF-1 treated eyes. Endothelial cell mitosis was validated using antibody to proliferating cell nuclear antigen. Systemic unpackaged peptide, e.g. lanreotide can be tested for its ability to inhibit IGF-1 induced neovascularization in this rabbit model.

For series [2], the system named is chorioallantoic membrane of the developing chick embryo. The following applies: chick chorioallantoic membrane assay; cited from earlier work.
The conditions of series [3]: after a similar dose (200 μg/kg); cited from earlier work.
For series [4] the following is noted: continuous infusion pump for 4 weeks, cited from earlier work.
The conditions of series [5]: compared with octreotide; cited from earlier work.
The subject of the next series is insulin secretion. The following applies: normal physiological conditions; cited from earlier work.
For series [6] the following is noted: in vivo; cited from earlier work.
Series [7] is described as follows: octreotide in patients with severe proliferative diabetic retinopathy (Grant, 1987–1994).
In series [8] the test system is human retinal endothelial cells (HREC). Briefly: proliferation and [3H] thymidine incorporation in growth factor stimulated HREC. It is filed as cell-based.
For series [9] the following is noted: several months of continuous infusion; 4 patients; cited from earlier work.
Series [10] is described as follows: pilot study of continuous octreotide infusion to prevent progression of diabetic retinopathy. In kind it is in vivo, human.
Setting [11] is: six patients, 25 to 100 μg three times a day.

In the case of `Nc1nc(O)c2ncn(COC(CO)CO)c2n1` [ganciclovir], in the series with cytomegalovirus (CMV) (at autopsy), the CMV-encephalitis entry is reported as “widespread CMV-encephalitis”. Moreover, the “treatment of CMV retinitis” value in the series with cytomegalovirus (CMV) (verified at autopsy) is reported as “successful treatment of CMV retinitis”.
In the case of “IGF-1: insulin-like growth factor 1, injected intravitreally to induce retinal neovascularization”, the ophthalmoscopy findings entry in series [1] (3 days after intravitreal injection of 600 μg) was “hyperemia with vascular engorgement”; in series [1] (by day 7), “Vascular tortuosity, intraretinal hemorrhage, and severe increased hyperemia surrounding the optic disc”; in series [1] (by day 21) it was “Fibrosis developed over the optic disc and medullary ray”. For the same compound, the “microscopic findings on the surface of the retina” value in [1] (all eyes treated) was “abnormal vessels were observed on the surface of the retina”.
As to lanreotide, the inhibition of angiogenesis result in [2] is given as “more potent in inhibiting angiogenesis compared to the natural somatostatin tetradecapeptide”. The “LNT levels in rat eyes” value in [3] is “unable to detect significant LNT levels”. Further, the disease regressed in [4] is given as 2 patients. Also, in series [4] (subjects who completed dosing), the disease progression halted is 8 of 8. For the same compound, in [5], the clinical tolerance entry is recorded as “better tolerated than octreotide”. Also, in the series with insulin secretion, the “effect on insulin secretion” value is given as “suppress insulin secretion”. Moreover, in series [6], the excreted intact is on record as more than 90% and the “stability of the peptide” value is “stable”.
On to octreotide, for which, in series [7] (all seven study patients), the HgA1c entry is “reductions”, the sense of well-being entry was “improved” and the visual acuity result is on record as “improved”. In series [7] (seventh patient), the posterior pole neovascularization result is “not affected” and the “side effects leading to stopping the drug” value is “gastrointestinal side effects”. Besides, in series [7] (seventh patient with severe bilateral neovascular glaucoma), the iris neovascularization result was “regressed completely”. Also, in [7] (setting [11]), the “disease progression during treatment period” value is listed as “None of the six patients showed disease progression” and the “regression of NVD” value is listed as “four”. Further, the “[3H] thymidine incorporation” value in series [8] (IGF-1 and b-FGF stimulated HREC) is on record as “dose-dependent inhibition”. Also, the “proliferation of HREC” value in series [8] (IGF-1 stimulated cultures) is given as “significantly decreased”. Moreover, the “inhibitory effect on proliferation of HREC” value in series [8] (b-FGF stimulated cultures) is given as 40–45%. In addition, the cell proliferation result in series [8] (cells grown in control medium) is on record as “minimal effect”. In [9], the retinal function result is reported as “improved”. Further, in series [10] (four octreotide-treated subjects, within the first 6 months of therapy), the HgA1c entry was “normalized”. In [10] (four patients), the “suppression of GH and IGF-1 levels into the hypopituitary range” value is given as “not achieved in any patient”. The “clinical or angiographic improvement” value in series [10] (four patients, continuous infusion, doses up to 5000 μg/day) is “no patient showed clear clinical or angiographic improvement”. For the same compound, in series [10] (four patients, in at least one eye), the “progression to high risk characteristics requiring laser therapy” value is on record as “Laser therapy was initiated in all four patients”. Further, the visual acuity entry in series [10] (patients receiving octreotide) is on record as “statistically significant improvement”.

The values above are taken from patent US7115566B2, “Compounds and method for the prevention and treatment of diabetic retinopathy” (University of Florida, priority 1997, dated 2006).
